Data as given in patent publication US20230219912A1, “HALOGENATED BENZOTHIADIAZINES FOR THE TREATMENT OF CANCER” (BOARD OF REGENTS OF THE UNIVERSITY OF NEBRASKA, priority 2020, published 2023).
Several values for one entry are separate records, joined by “and”; a condition that tells them apart may be missing. Equal values may be shown once. Entries after “also recorded” stand apart in the source; their conditions may differ. Read-outs that look alike come from different tables or passages of the source.

Experiments:
[1] = target: T1, Mitochondrial respiratory complex II (Rattus norvegicus, UniProt P21913+Q641Z9+Q6PCT8+Q920L2); experiment: Mitochondrial respiratory complex II inhibition assay; type: biochemical; details: for inhibition at 100 µM: read-out: inhibition of CII
T1 construct: measured spectrophotometrically using isolated rat heart mitochondria; from tissue; host or cells: rat heart mitochondria / sub-mitochondrial particles
Method: The assay was performed as follows. Mitochondria were isolated either from fresh rat hearts or by differential centrifugation in sucrose-based buffer as previously described.^24 Complex II enzymatic activity was determined spectrophotometrically as the rate of succinate-driven, co-enzyme Q2-linked reduction of dichlorophenolindophenol (DCPIP).^49 Mitochondria or sub-mitochondrial particles were incubated in phosphate buffer (pH 7.4) containing 40 μM DCPIP, 1 mM KCN, 10 μM rotenone, and 50 μM co-enzyme Q2. The rate of reduction of DCPIP to DCPIPH2 was followed at […] (ε=21,000 M-1). Varying amounts of succinate and inhibitors were used to determine an IC50 value. At the end of each run thenoyltrifluoroacetone (1 mM) was added and the residual TTFA-insensitive rate subtracted.

[2] = test system: Mitochondrial respiratory complex II (CII); details: literature, cited from earlier work
[3] = test system: 22Rv1 prostate cancer cells; experiment: MTS cytotoxicity assay in 22Rv1 prostate cancer cells; details: Homo sapiens; for cytotoxicity at 100 µM: 22Rv1, 48 h, read-out: reduction of 22Rv1 cell viability
Method: (§1) The assay was performed as follows. To determine the cell growth inhibition ability of the synthesized compounds the (3-(4,5-dimethylthiazol-2-yl)-5-(3-carboxymethoxyphenyl)-2-(4-sulfophenyl)-2H-tetrazolium) (MTS) assay used according to the manufacturer's recommended protocol. Stock solutions of the synthesized compounds were prepared in DMSO. Cells were seeded at a density of 1×10^5 cells in 96-well plates. After 24 hours, cells were treated at the indicated concentrations of test compounds, limiting the final DMSO concentration to less than 1%. After incubation at 37° C. in an environment of 5% CO2 for 48-72 hours, 10 μL of MTS reagent (CellTiter 96© AQueous One Solution Reagent) was added to each well and incubated at the above mentioned conditions for 2-4 hr. Absorbance was recorded at 490 nm on a BioTek Synergy Mx multimode plate reader and the viability of cells were plotted as percentage of controls.

[4] = test system: MDA-MB-468 triple negative breast cancer cells; experiment: MTS cytotoxicity assay in MDA-MB-468 triple negative breast cancer cells; type: cell-based; details: Homo sapiens, MDA-MB-468; 72 hours; mean ± SD n = 3
Method: The assay was performed as follows.
Derivatives were dosed at 10, 50 and 100 μM for 24, 48 and 72 hours and cell viability measured by MTS assay (FIG. 5).

[5] = test system: human embryonic kidney (HEK293) cells; experiment: MTS cytotoxicity assay in HEK293 cells; type: cell-based; details: 72 hours, mean ± SD n = 3
Method: as §1
Cytotoxicity was also evaluated by using the low tumorigenic HEK293 cells at 50 μM concentration.

[6] = test system: VEGF-induced proliferation of HUVEC cells; experiment: VEGF-induced HUVEC proliferation, MTT assay; type: cell-based, human; details: VEGF 10 ng/mL; for inhibition of VEGF-induced HUVEC proliferation (in words): 20 μM; for inhibition at 20 µM: Homo sapiens, read-out: % Inhibition of Proliferation
Method: The assay was performed as follows. Vascular endothelial growth factor (VEGF, Cat #SRP3182) was purchased from Sigma. […] Stock solutions of all compounds were prepared in DMSO and were serially diluted for cell culture treatment maintaining the final DMSO concentration at less than 1%. Cell proliferation of HUVECs was evaluated through the MTT (3-[4, 5-dimethylthiazol-2-yl]-2, 5-dimethyltetrazolium bromide) colorimetric assay, as previously described.^28 The HUVECs were seeded at a density of 10,000 cells/well in 24 well plates in serum-containing medium and cultured overnight. Cells were starved with 300 μL of assay media (0.1% BSA+0.1% FBS in basal medium) for 24 h. Then, cells were treated with 500 μL of assay medium (control group), VEGF (10 ng/mL, positive control group) or VEGF along with compounds (20 μM). After 48 h of culture, 50 μL of MTT stock (5 mg/mL in PBS) was added to each well and incubated for 2 h at 37° C. to allow the formation of dark blue formazan crystals in the metabolically active cells. The medium was removed, the cells were washed with PBS (pH 7.4), and 100 μL of acidified isopropanol (0.33 mL HCl in 100 mL isopropanol) was added to each well and incubated for 5 min with thorough agitation to solubilize the formazan crystals. An equal volume of the solution was transferred to a 96-well plate and the absorbance was immediately measured using a microplate reader at a wavelength of 570 nm.

[7] = 100 μM, relative to DMSO control
[8] = HUVEC, 48 h, 20 μM compound, HUVEC, 48 h, relative to VEGF treated cells, mean ± SEM n = 3

T1 sequence (Q920L2 35-656): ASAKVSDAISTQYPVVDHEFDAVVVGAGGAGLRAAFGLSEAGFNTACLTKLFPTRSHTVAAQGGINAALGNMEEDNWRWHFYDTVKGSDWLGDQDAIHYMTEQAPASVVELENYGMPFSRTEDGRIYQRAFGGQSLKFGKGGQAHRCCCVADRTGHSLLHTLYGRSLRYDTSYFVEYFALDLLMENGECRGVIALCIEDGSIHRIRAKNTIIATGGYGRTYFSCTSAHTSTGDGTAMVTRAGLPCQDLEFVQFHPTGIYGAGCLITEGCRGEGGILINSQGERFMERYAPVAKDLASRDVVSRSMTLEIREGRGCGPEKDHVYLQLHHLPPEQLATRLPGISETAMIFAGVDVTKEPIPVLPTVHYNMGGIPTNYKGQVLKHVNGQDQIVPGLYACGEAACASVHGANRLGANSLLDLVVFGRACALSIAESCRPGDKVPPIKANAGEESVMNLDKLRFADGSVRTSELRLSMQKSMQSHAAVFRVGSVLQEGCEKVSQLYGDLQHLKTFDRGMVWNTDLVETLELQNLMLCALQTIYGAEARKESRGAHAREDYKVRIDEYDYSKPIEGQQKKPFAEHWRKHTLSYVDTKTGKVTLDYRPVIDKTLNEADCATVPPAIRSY
T1 sequence (P21913 31-282): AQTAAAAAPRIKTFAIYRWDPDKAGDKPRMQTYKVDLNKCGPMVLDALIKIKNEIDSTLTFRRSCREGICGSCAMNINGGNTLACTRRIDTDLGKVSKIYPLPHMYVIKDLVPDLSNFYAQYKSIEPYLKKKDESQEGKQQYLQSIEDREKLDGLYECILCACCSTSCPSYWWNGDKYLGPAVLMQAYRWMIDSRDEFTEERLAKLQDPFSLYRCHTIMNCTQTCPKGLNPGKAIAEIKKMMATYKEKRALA
T1 sequence (Q641Z9 1-169): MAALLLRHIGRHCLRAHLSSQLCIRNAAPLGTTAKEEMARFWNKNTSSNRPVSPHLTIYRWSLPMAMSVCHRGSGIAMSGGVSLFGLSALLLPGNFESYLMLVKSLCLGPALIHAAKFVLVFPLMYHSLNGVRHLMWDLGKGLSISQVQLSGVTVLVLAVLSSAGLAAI
T1 sequence (Q6PCT8 57-159): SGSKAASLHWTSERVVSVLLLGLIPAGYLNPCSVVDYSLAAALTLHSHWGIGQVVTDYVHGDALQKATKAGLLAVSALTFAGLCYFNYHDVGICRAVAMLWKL

Row | SMILES | IC50 [2] [µM] | IC50 [4] [µM] | IC50 [5] [µM] | inhibition of VEGF-induced HUVEC proliferation (in words) [6] | inhibition at 20 µM [6, 8] [%] | other results
1 | COc1[nH]c(=O)c(C(=O)[C@@H](C)C[C@H](C)[C@@H](Cl)CCl)c(O)c1OC [Atpenin A5, reference compound] | 0.0033 |  |  |  |  | inhibition of CII ([1]; 0.1 μM): 93%; IC50 ([1]; positive control, read-out: CII IC50): 0.0033 µM; IC50 ([2]; listed as atpenin A5): 0.0036 to 0.01 µM
2 | O=S1(=O)N=C(NCCCc2ccccc2)Nc2cc(Cl)ccc21 [Compound 23b, 6-chloro-3-((3-phenylpropyl)amino)-4H-benzo[e][1,2,4]thiadiazine 1,1-dioxide] |  | 91.9 ± 16.8 | 111 ± 7.4 | suppressed HUVEC proliferation; also recorded: enhanced activity | 178 ± 8 | inhibition at 100 µM [1, 7]: 30%; cytotoxicity at 100 µM [3]: ~35%
3 | O=S1(=O)N=C(NCc2ccccc2OC(F)(F)F)Nc2cc(Cl)ccc21 [Compound 43b, 6-Chloro-3-((2-(trifluoromethoxy)benzyl)amino)-4H-benzo[e][1,2,4]thiadiazine 1,1-dioxide] |  | 14.9 | 30.5 | suppressed HUVEC proliferation; also recorded: enhanced activity | 124 ± 4 | 
4 | O=C(O)CC(=O)O [Malonate] | 40 |  |  |  |  | 
5 | O=C(CC(=O)C(F)(F)F)c1cccs1 [Thenoyltrifluoroacetone] | 30 |  |  |  |  | 
6 | O=S1(=O)N=C(NCCCCc2ccccc2)Nc2ccc(Cl)cc21 [Compound 65e, 7-Chloro-3-((4-phenylbutyl)amino)-4H-benzo[e][1,2,4]thiadiazine 1,1-dioxide] |  |  | 23.4 | suppressed HUVEC proliferation; also recorded: enhanced activity | 116 ± 16 | 
7 | CCCCCC(=O)c1c(O)nc(OC)c(OC)c1O [AA5-16c, reference compound] | 0.064 | 6.71 ± 0.8 | 25.9 ± 2.4 |  |  | cytotoxicity at 20 µM ([3]; 22Rv1, read-out: reduction of 22Rv1 cell viability): 60%; ligand-lipophilicity efficiency [2]: 5.62
8 | O=S1(=O)N=C(NCc2ccc(F)cc2F)Nc2ccc(Cl)cc21 [Compound 63e, 7-Chloro-3-((2,4-difluorobenzyl)amino)-4H-benzo[e][1,2,4]thiadiazine 1,1-dioxide] |  | 45.5 | 58.9 ± 13.7 | suppressed HUVEC proliferation; also recorded: enhanced activity | 133 ± 12 | 
9 | O=S1(=O)N=C(NCCCc2ccccc2)Nc2ccc(Cl)cc21 [Compound 60e, 7-Chloro-3-((3-phenylpropyl)amino)-4H-benzo[e][1,2,4]thiadiazine 1,1-dioxide] |  |  | 30.9 | suppressed HUVEC proliferation; also recorded: enhanced activity | 92 ± 15 | 
10 | Cc1c(C)c2c(c(C)c1OC(=O)CCC(=O)O)CC[C@@](C)(CCC[C@H](C)CCC[C@H](C)CCCC(C)C)O2 [α-Tocopheryl succinate] | 42 |  |  |  |  | 
11 | O=S1(=O)N=C(NCc2ccccc2)Nc2cc(Cl)ccc21 [Compound 21b, 3-(benzylamino)-6-chloro-4H-benzo[e][1,2,4]thiadiazine 1,1-dioxide] |  | 64.2 ± 14.2 | 102 ± 16.1 | suppressed HUVEC proliferation; also recorded: enhanced activity |  | inhibition of CII [1, 7]: inactive; inhibition at 100 µM [1, 7]: 0%; cytotoxicity at 100 µM [3]: ~35%; % Inhibition of Proliferation ([6]; 20 μM compound, HUVEC, 48 h, relative to VEGF treated cells, mean ± SEM n = 3, 20 µM): 200±12% and 125±10%
12 | CNC(=O)c1cc(Oc2ccc(NC(=O)Nc3ccc(Cl)c(C(F)(F)F)c3)cc2)ccn1 [Sorafenib, reference compound] |  | 7.31 ± 1.9 | 2.95 ± 0.1 |  |  | 
13 | O=S1(=O)N=C(NCc2ccc(F)cc2F)Nc2cc(Cl)ccc21 [Compound 29b, 6-chloro-3-((2,4-difluorobenzyl)amino)-4H-benzo[e][1,2,4]thiadiazine 1,1-dioxide] |  | 84.6 | 129 ± 12.2 | suppressed HUVEC proliferation; also recorded: enhanced activity | 167 ± 14 | 
